These results are taken from EP2649091B1, “IMMUNE RESTRICTED PEPTIDES WITH INCREASED EFFICACY” (Stichting Het Nederlands Kanker Instituut, priority 2010, dated 2012).

The test system of assay [1] is SVYDFFVWL (TRP-2 180-188) reactive T cells. Description: T cell activation time course assay, IFNγ production (FACS), TRP-2 epitope. Particulars: for % CD8+ T cells producing IFN-γ peptide concentrations in picomolar 24H 0.5 / Geometric mean IFN-γ in arbitrary fluorescence units peptide concentrations in picomolar 24H 0.5 / % CD8+ T cells producing IFN-γ peptide concentrations in picomolar 48H 0.5 / Geometric mean IFN-γ in arbitrary fluorescence units peptide concentrations in picomolar 48H 0.5: peptide 0.5 pM; for % CD8+ T cells producing IFN-γ peptide concentrations in picomolar 24H 50 / Geometric mean IFN-γ in arbitrary fluorescence units peptide concentrations in picomolar 24H 50 / % CD8+ T cells producing IFN-γ peptide concentrations in picomolar 48H 50 / Geometric mean IFN-γ in arbitrary fluorescence units peptide concentrations in picomolar 48H 50: peptide 50 pM; for % CD8+ T cells producing IFN-γ peptide concentrations in picomolar 24H 5·10^3 / Geometric mean IFN-γ in arbitrary fluorescence units peptide concentrations in picomolar 24H 5·10^3 / % CD8+ T cells producing IFN-γ peptide concentrations in picomolar 48H 5·10^3 / Geometric mean IFN-γ in arbitrary fluorescence units peptide concentrations in picomolar 48H 5·10^3: peptide 5·10^3 pM.

The next assay concerns the target HLA-A0201 (Homo sapiens, UniProt P04439, D140Y/D185E/D98H/E176V/E277Q/G131W/G231S/I119V/I121R/I166T/I218V/L300P/L318F/N151K/N90K/P208A/P217A/Q86G/Q94H/R138H/R169H/T345S). Type of assay: binding.

Broadly, the % inhibition is the drop in the measured response relative to a control, in per cent. A low value points to a weak effect. Consider [PHG][2-AOC]YDFFVWL, for which, in assay [1], the “% CD8+ T cells producing IFN-γ peptide concentrations in picomolar 24H 0.5” value amounted to 0%, the “Geometric mean IFN-γ in arbitrary fluorescence units peptide concentrations in picomolar 24H 0.5” value (“Geometric mean IFN-γ … in picomolar 24H 0.5” for short) was 85 arbitrary fluorescence units, the “% CD8+ T cells producing IFN-γ peptide concentrations in picomolar 24H 50” value was 14% and the “Geometric mean IFN-γ in arbitrary fluorescence units peptide concentrations in picomolar 24H 50” value (“Geometric mean IFN-γ … in picomolar 24H 50” below) is recorded as 95 arbitrary fluorescence units. Besides, in assay [1], the “% CD8+ T cells producing IFN-γ peptide concentrations in picomolar 24H 5·10^3” value was found to be 30%, the “Geometric mean IFN-γ in arbitrary fluorescence units peptide concentrations in picomolar 24H 5·10^3” value (from here on “Geometric mean IFN-γ … in picomolar 24H 5·10^3”) is 224 arbitrary fluorescence units, the “% CD8+ T cells producing IFN-γ peptide concentrations in picomolar 48H 0.5” value came out at 1% and the “Geometric mean IFN-γ in arbitrary fluorescence units peptide concentrations in picomolar 48H 0.5” value (shortened to “Geometric mean IFN-γ … in picomolar 48H 0.5”) is 75 arbitrary fluorescence units. Moreover, in assay [1], the “% CD8+ T cells producing IFN-γ peptide concentrations in picomolar 48H 50” value worked out at 3%, the “% CD8+ T cells producing IFN-γ peptide concentrations in picomolar 48H 5·10^3” value worked out at 33% and the “Geometric mean IFN-γ in arbitrary fluorescence units peptide concentrations in picomolar 48H 5·10^3” value (“Geometric mean IFN-γ … in picomolar 48H 5·10^3” for short) is 184 arbitrary fluorescence units. Moreover, on HLA-A0201, the “% inhibition at T=4H and T=24H FP 4h” value is 90%; the “% inhibition at T=4H and T=24H FP 24h” value was 75%.
As to [PHG][2-AOC]YDFFVW[PRG], in assay [1], the “% CD8+ T cells producing IFN-γ peptide concentrations in picomolar 24H 0.5” value stood at 0%, the “Geometric mean IFN-γ … in picomolar 24H 0.5” value is recorded as 95 arbitrary fluorescence units, the “% CD8+ T cells producing IFN-γ peptide concentrations in picomolar 24H 50” value is listed as 1% and the “Geometric mean IFN-γ … in picomolar 24H 50” value is given as 68 arbitrary fluorescence units. In assay [1], the “% CD8+ T cells producing IFN-γ peptide concentrations in picomolar 24H 5·10^3” value stood at 20%, the “Geometric mean IFN-γ … in picomolar 24H 5·10^3” value is on record as 120 arbitrary fluorescence units, the “% CD8+ T cells producing IFN-γ peptide concentrations in picomolar 48H 0.5” value was determined as 1% and the “Geometric mean IFN-γ … in picomolar 48H 0.5” value was 79 arbitrary fluorescence units. Further, in assay [1], the “% CD8+ T cells producing IFN-γ peptide concentrations in picomolar 48H 50” value was determined as 0%, the “Geometric mean IFN-γ in arbitrary fluorescence units peptide concentrations in picomolar 48H 50” value (shortened to “Geometric mean IFN-γ … in picomolar 48H 50”) is reported as 78 arbitrary fluorescence units, the “% CD8+ T cells producing IFN-γ peptide concentrations in picomolar 48H 5·10^3” value stood at 0% and the “Geometric mean IFN-γ … in picomolar 48H 5·10^3” value is listed as 78 arbitrary fluorescence units. On HLA-A0201, the “% inhibition at T=4H and T=24H FP 4h” value stood at 83%; the “% inhibition at T=4H and T=24H FP 24h” value amounted to 78%.
Take [PHG][CpALA]YDFFVWL: in assay [1], the “% CD8+ T cells producing IFN-γ peptide concentrations in picomolar 24H 0.5” value stood at 1%, the “Geometric mean IFN-γ … in picomolar 24H 0.5” value was 71 arbitrary fluorescence units, the “% CD8+ T cells producing IFN-γ peptide concentrations in picomolar 24H 50” value was determined as 12% and the “Geometric mean IFN-γ … in picomolar 24H 50” value is on record as 87 arbitrary fluorescence units. In assay [1], the “% CD8+ T cells producing IFN-γ peptide concentrations in picomolar 24H 5·10^3” value worked out at 30%, the “Geometric mean IFN-γ … in picomolar 24H 5·10^3” value is recorded as 221 arbitrary fluorescence units, the “% CD8+ T cells producing IFN-γ peptide concentrations in picomolar 48H 0.5” value is 0% and the “Geometric mean IFN-γ … in picomolar 48H 0.5” value is listed as 70 arbitrary fluorescence units. Moreover, in assay [1], the “% CD8+ T cells producing IFN-γ peptide concentrations in picomolar 48H 50” value was found to be 6%, the “% CD8+ T cells producing IFN-γ peptide concentrations in picomolar 48H 5·10^3” value worked out at 34% and the “Geometric mean IFN-γ … in picomolar 48H 5·10^3” value is given as 183 arbitrary fluorescence units. For the same substance, on HLA-A0201, the “% inhibition at T=4H and T=24H FP 4h” value is recorded as 77%; the “% inhibition at T=4H and T=24H FP 24h” value turned out to be 75%.
For the substance [PHG][NVA]YDFFVWL, in assay [1], the “% CD8+ T cells producing IFN-γ peptide concentrations in picomolar 24H 0.5” value came to 0%, the “Geometric mean IFN-γ … in picomolar 24H 0.5” value is recorded as 76 arbitrary fluorescence units, the “% CD8+ T cells producing IFN-γ peptide concentrations in picomolar 24H 50” value is given as 15% and the “Geometric mean IFN-γ … in picomolar 24H 50” value is 94 arbitrary fluorescence units. For the same substance, in assay [1], the “% CD8+ T cells producing IFN-γ peptide concentrations in picomolar 24H 5·10^3” value turned out to be 29%, the “Geometric mean IFN-γ … in picomolar 24H 5·10^3” value is reported as 263 arbitrary fluorescence units, the “% CD8+ T cells producing IFN-γ peptide concentrations in picomolar 48H 0.5” value came out at 0% and the “Geometric mean IFN-γ … in picomolar 48H 0.5” value is listed as 85 arbitrary fluorescence units. Moreover, in assay [1], the “% CD8+ T cells producing IFN-γ peptide concentrations in picomolar 48H 50” value worked out at 2%, the “% CD8+ T cells producing IFN-γ peptide concentrations in picomolar 48H 5·10^3” value was found to be 30% and the “Geometric mean IFN-γ … in picomolar 48H 5·10^3” value is recorded as 188 arbitrary fluorescence units. For the same substance, at HLA-A0201, the “% inhibition at T=4H and T=24H FP 4h” value turned out to be 79%; the “% inhibition at T=4H and T=24H FP 24h” value stood at 76%.
Regarding [PHG][NVA]YDFFVW[ALG], in assay [1], the “% CD8+ T cells producing IFN-γ peptide concentrations in picomolar 24H 0.5” value is recorded as 0%, the “Geometric mean IFN-γ … in picomolar 24H 0.5” value is 84 arbitrary fluorescence units, the “% CD8+ T cells producing IFN-γ peptide concentrations in picomolar 24H 50” value is listed as 6% and the “Geometric mean IFN-γ … in picomolar 24H 50” value is reported as 71 arbitrary fluorescence units. For the same substance, in assay [1], the “% CD8+ T cells producing IFN-γ peptide concentrations in picomolar 24H 5·10^3” value was 35%, the “Geometric mean IFN-γ … in picomolar 24H 5·10^3” value is recorded as 185 arbitrary fluorescence units, the “% CD8+ T cells producing IFN-γ peptide concentrations in picomolar 48H 0.5” value worked out at 1% and the “Geometric mean IFN-γ … in picomolar 48H 0.5” value is recorded as 64 arbitrary fluorescence units. Moreover, in assay [1], the “% CD8+ T cells producing IFN-γ peptide concentrations in picomolar 48H 50” value stood at 1%, the “Geometric mean IFN-γ … in picomolar 48H 50” value is recorded as 64 arbitrary fluorescence units, the “% CD8+ T cells producing IFN-γ peptide concentrations in picomolar 48H 5·10^3” value is on record as 22% and the “Geometric mean IFN-γ … in picomolar 48H 5·10^3” value was 142 arbitrary fluorescence units. Further, at HLA-A0201, the “% inhibition at T=4H and T=24H FP 4h” value came out at 76%; the “% inhibition at T=4H and T=24H FP 24h” value stood at 73%.
For [PHG][NVA]YDFFVW[PRG], in assay [1], the “% CD8+ T cells producing IFN-γ peptide concentrations in picomolar 24H 0.5” value is listed as 1%, the “Geometric mean IFN-γ … in picomolar 24H 0.5” value is 89 arbitrary fluorescence units, the “% CD8+ T cells producing IFN-γ peptide concentrations in picomolar 24H 50” value was 6% and the “Geometric mean IFN-γ … in picomolar 24H 50” value was 73 arbitrary fluorescence units. Also, in assay [1], the “% CD8+ T cells producing IFN-γ peptide concentrations in picomolar 24H 5·10^3” value turned out to be 33%, the “Geometric mean IFN-γ … in picomolar 24H 5·10^3” value is given as 183 arbitrary fluorescence units, the “% CD8+ T cells producing IFN-γ peptide concentrations in picomolar 48H 0.5” value was determined as 0% and the “Geometric mean IFN-γ … in picomolar 48H 0.5” value is listed as 66 arbitrary fluorescence units. In addition, in assay [1], the “% CD8+ T cells producing IFN-γ peptide concentrations in picomolar 48H 50” value is 1%, the “Geometric mean IFN-γ … in picomolar 48H 50” value is 61 arbitrary fluorescence units, the “% CD8+ T cells producing IFN-γ peptide concentrations in picomolar 48H 5·10^3” value is recorded as 21% and the “Geometric mean IFN-γ … in picomolar 48H 5·10^3” value is reported as 139 arbitrary fluorescence units. Also, on HLA-A0201, the “% inhibition at T=4H and T=24H FP 4h” value amounted to 83%; the “% inhibition at T=4H and T=24H FP 24h” value was 78%.
As to [am-phg][2-AOC]YDFFVWL, in assay [1], the “% CD8+ T cells producing IFN-γ peptide concentrations in picomolar 24H 0.5” value came to 0%, the “Geometric mean IFN-γ … in picomolar 24H 0.5” value is reported as 78 arbitrary fluorescence units, the “% CD8+ T cells producing IFN-γ peptide concentrations in picomolar 24H 50” value is on record as 12% and the “Geometric mean IFN-γ … in picomolar 24H 50” value is recorded as 82 arbitrary fluorescence units. Besides, in assay [1], the “% CD8+ T cells producing IFN-γ peptide concentrations in picomolar 24H 5·10^3” value stood at 31%, the “Geometric mean IFN-γ … in picomolar 24H 5·10^3” value is listed as 215 arbitrary fluorescence units, the “% CD8+ T cells producing IFN-γ peptide concentrations in picomolar 48H 0.5” value is listed as 0% and the “Geometric mean IFN-γ … in picomolar 48H 0.5” value was 88 arbitrary fluorescence units. In assay [1], the “% CD8+ T cells producing IFN-γ peptide concentrations in picomolar 48H 50” value is given as 1%, the “Geometric mean IFN-γ … in picomolar 48H 50” value is recorded as 70 arbitrary fluorescence units, the “% CD8+ T cells producing IFN-γ peptide concentrations in picomolar 48H 5·10^3” value is listed as 30% and the “Geometric mean IFN-γ … in picomolar 48H 5·10^3” value is 143 arbitrary fluorescence units. Moreover, on HLA-A0201, the “% inhibition at T=4H and T=24H FP 4h” value is reported as 94%; the “% inhibition at T=4H and T=24H FP 24h” value is reported as 87%.
Consider [am-phg][2-AOC]YDFFVW[ALG], for which, in assay [1], the “% CD8+ T cells producing IFN-γ peptide concentrations in picomolar 24H 0.5” value was determined as 0%, the “Geometric mean IFN-γ … in picomolar 24H 0.5” value is recorded as 98 arbitrary fluorescence units, the “% CD8+ T cells producing IFN-γ peptide concentrations in picomolar 24H 50” value is given as 1% and the “Geometric mean IFN-γ … in picomolar 24H 50” value is given as 69 arbitrary fluorescence units. For the same substance, in assay [1], the “% CD8+ T cells producing IFN-γ peptide concentrations in picomolar 24H 5·10^3” value is on record as 7%, the “Geometric mean IFN-γ … in picomolar 24H 5·10^3” value was 79 arbitrary fluorescence units, the “% CD8+ T cells producing IFN-γ peptide concentrations in picomolar 48H 0.5” value is 0% and the “Geometric mean IFN-γ … in picomolar 48H 0.5” value is on record as 76 arbitrary fluorescence units. In addition, in assay [1], the “% CD8+ T cells producing IFN-γ peptide concentrations in picomolar 48H 50” value worked out at 0%, the “Geometric mean IFN-γ … in picomolar 48H 50” value is recorded as 80 arbitrary fluorescence units, the “% CD8+ T cells producing IFN-γ peptide concentrations in picomolar 48H 5·10^3” value turned out to be 4% and the “Geometric mean IFN-γ … in picomolar 48H 5·10^3” value is given as 71 arbitrary fluorescence units. Further, at HLA-A0201, the “% inhibition at T=4H and T=24H FP 4h” value came to 73%; the “% inhibition at T=4H and T=24H FP 24h” value is given as 73%.
